Among the data in patent US10329256B2, “(Hetero)aryl cyclopropylamine compounds as LSD1 inhibitors” (Oryzon Genomics, S.A., priority 2011, dated 2019) are EC50 values, retold here.

This experiment deals with THP-1 cells. As to the kind of experiment: cells. Type of experiment: cell-based. The conditions noted are these: Homo sapiens, THP-1, 96 h. As to the method:
By analyzing the induction of CD11b membrane expression on THP-1 cells we are assessing the ability of LSD1 inhibitors to induce terminal monocytic differentiation of a MLL-AF9 AML cell line.
They carry t(9; 11)(p21; q23) leading to MLL-MLLT3 (MLL-AF9) fusion gene. This cell line can undergo monocytic differentiation upon treatment with the appropriate stimulus.
In this assay, 150,000 THP-1 cells were seeded in 1 ml of complete culture medium in 6-well tissue culture plates. Serial dilutions of the compounds were prepared in DMSO and then further diluted in complete medium to generate solutions of concentrations that are double of the final concentration at which the cells will be exposed. 1 ml of these 2× concentrated solutions was added to the cells.
Cells were kept in the presence of compounds for 96 h at a 5% CO2 atmosphere at 37° C. After this treatment period, cells were harvested, washed twice with PBS buffer and placed in a V-bottom 96-well plate. Each treated sample was split in two.
Percentage of CD11b positive cells, as an indicator of monocytic differentiation, was determined compared to isotype control antibody stained cells. EC50 values were calculated by non-linear regression analysis.

The structures appear in SMILES notation. Structures can show the parent of a compound that is named as a salt.

For the compound `c1ccc([C@H]2C[C@@H]2NC2CCNCC2)cc1` (racemic) [Example 1, N-((trans)-2-phenylcyclopropyl)piperidin-4-amine hydrochloride], the EC50 (usually the concentration giving half of the maximal effect) worked out at 2.1 nM.

For `c1ccc([C@@H]2C[C@H]2NC2CCNCC2)cc1` [Example 3, N-((1R,2S)-2-phenylcyclopropyl)piperidin-4-amine hydrochloride], it took 0.8 nM to reach a half-maximal effect (EC50).
